# Assay results reported in US4624955A, “6H-isoxazolo[3,4-d]pyrazolo[3,4-b]pyridines, method for their preparation and use as anxiolytic agents” (Hoechst-Roussel Pharmaceuticals, priority 1985, dated 1986).
# Target: benzodiazepin recognition sites in a membrane preparation from rat brain
# Assay: 3H-Flunitrazepam binding (displacement from benzodiazepine recognition sites; anxiolytic activity)
# Design: species or system rat (male Wistar)
# Details: rat cerebral cortex membranes; 2 nM 3H-flunitrazepam; pH 6.9; 20 minutes at 0-4 °C; log-probit analysis
row,SMILES,IC50 [nM]
1,"CCn1ncc2c3noc(-c4cccc(Cl)c4)c3cnc21 [3-(3-Chlorophenyl)-6-ethyl-6H-isoxazolo[3,4-d]pyrazolo[3,4-b]pyridine]",4400
2,"CCn1ncc2c3noc(-c4ccc(Cl)cc4)c3cnc21 [3-(4-Chlorophenyl)-6-ethyl-6H-isoxazolo[3,4-d]pyrazolo[3,4-b]pyridine]",400
3,"CCn1ncc2c3noc(-c4ccccc4OC)c3cnc21 [6-Ethyl-3-(2-methoxyphenyl)-6H-isoxazolo[3,4-d]pyrazolo[3,4-b]pyridine]",2000
4,"CCn1ncc2c3noc(-c4cccc(F)c4)c3cnc21 [6-Ethyl-3-(3-fluorophenyl)-6H-isoxazolo[3,4-d]pyrazolo[3,4-b]pyridine]",2300
5,"CCn1ncc2c3noc(-c4ccc(F)cc4)c3cnc21 [6-Ethyl-3-(4-fluorophenyl)-6H-isoxazolo[3,4-d]pyrazolo[3,4-b]pyridine]",530
6,"CCn1ncc2c3noc(-c4ccc(OC)cc4)c3cnc21 [6-Ethyl-3-(4-methoxyphenyl)-6H-isoxazolo[3,4-d]pyrazolo[3,4-b]pyridine]",1200
7,"CCn1ncc2c3noc(-c4ccc(C)cc4)c3cnc21 [6-Ethyl-3-(4-tolyl)-6H-isoxazolo[3,4-d]pyrazolo[3,4-b]pyridine]",990
8,"CCn1ncc2c3noc(-c4ccccc4)c3cnc21 [6-Ethyl-3-phenyl-6H-isoxazolo[3,4-d]pyrazolo[3,4-b]pyridine]",470
9,"CNC1=Nc2ccc(Cl)cc2C(c2ccccc2)=[N+]([O-])C1 [Chlordiazepoxide, reference compound]",340
